ChEMBL document CHEMBL1123560, “Novel 1H-benzimidazol-4-ols with potent 5-lipoxygenase inhibitory activity” (J Med Chem, 1987)

Tests used:
[1] = molecular target: T1, Polyunsaturated fatty acid 5-lipoxygenase (Rattus norvegicus, UniProt P12527); assay: In vitro inhibition of RBL-1 5-lipoxygenase; type: cell-based
T1 sequence (P12527 whole entry): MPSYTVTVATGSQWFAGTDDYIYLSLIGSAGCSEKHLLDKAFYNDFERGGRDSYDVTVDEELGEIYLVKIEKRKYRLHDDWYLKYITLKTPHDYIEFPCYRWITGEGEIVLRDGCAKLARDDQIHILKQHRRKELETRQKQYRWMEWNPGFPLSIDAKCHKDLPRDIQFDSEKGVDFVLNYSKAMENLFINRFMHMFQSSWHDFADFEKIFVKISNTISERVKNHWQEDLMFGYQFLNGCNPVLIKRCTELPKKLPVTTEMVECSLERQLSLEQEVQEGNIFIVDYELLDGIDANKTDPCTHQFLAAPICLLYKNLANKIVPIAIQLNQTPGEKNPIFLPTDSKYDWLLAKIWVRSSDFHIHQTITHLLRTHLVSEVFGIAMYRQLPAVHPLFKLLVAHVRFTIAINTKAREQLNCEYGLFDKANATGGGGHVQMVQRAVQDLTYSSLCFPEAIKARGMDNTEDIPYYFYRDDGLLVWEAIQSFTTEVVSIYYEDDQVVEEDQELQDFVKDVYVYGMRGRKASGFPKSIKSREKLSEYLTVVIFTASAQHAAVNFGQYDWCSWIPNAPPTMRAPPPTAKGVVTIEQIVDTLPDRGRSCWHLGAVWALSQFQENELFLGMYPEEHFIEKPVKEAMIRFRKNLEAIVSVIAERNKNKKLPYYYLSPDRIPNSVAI

[2] = system: Rattus norvegicus; assay: (§1) In vivo activity against the release of SRS(slow releasing substance)-A in a rat passive intraperitoneally; type: functional; design: concentration or dose not given beside the values
[3] = molecular target: T1, Polyunsaturated fatty acid 5-lipoxygenase; assay: In vitro inhibition of RBL-1 5-lipoxygenase; Value ranges from 3.3-3.5; type: cell-based
[4] = molecular target: T1, Polyunsaturated fatty acid 5-lipoxygenase; assay: In vitro inhibition of RBL-1 5-lipoxygenase; Value ranges from 0.3-1.6; type: cell-based
[5] = molecular target: T1, Polyunsaturated fatty acid 5-lipoxygenase; assay: In vitro inhibition of RBL-1 5-lipoxygenase; Value ranges from 1.0-1.5; type: cell-based
[6] = molecular target: T1, Polyunsaturated fatty acid 5-lipoxygenase; assay: In vitro inhibition of RBL-1 5-lipoxygenase; Value ranges from 1.0-1.7; type: cell-based
[7] = molecular target: T1, Polyunsaturated fatty acid 5-lipoxygenase; assay: In vitro inhibition of RBL-1 5-lipoxygenase; Value ranges from 4.0-6.4; type: cell-based
[8] = molecular target: T1, Polyunsaturated fatty acid 5-lipoxygenase; assay: In vitro inhibition of RBL-1 5-lipoxygenase; Value ranges from 1.4-3.2; type: cell-based
[9] = molecular target: T1, Polyunsaturated fatty acid 5-lipoxygenase; assay: In vitro inhibition of RBL-1 5-lipoxygenase; Value ranges from 1.8-2.8; type: cell-based
[10] = molecular target: T1, Polyunsaturated fatty acid 5-lipoxygenase; assay: In vitro inhibition of RBL-1 5-lipoxygenase; Value ranges from 7.5-11.8; type: cell-based
[11] = molecular target: T1, Polyunsaturated fatty acid 5-lipoxygenase; assay: In vitro inhibition of RBL-1 5-lipoxygenase; Value ranges from 0.9-4.0; type: cell-based
[12] = molecular target: T1, Polyunsaturated fatty acid 5-lipoxygenase; assay: In vitro inhibition of RBL-1 5-lipoxygenase; Value ranges from 1.9-2.4; type: cell-based
[13] = system: Rattus norvegicus; assay: Inhibition of monocyte accumulation (DNA content) in a rat pleural exudate model of inflammation at 45 ug administered perorally; type: functional
[14] = system: Rattus norvegicus; assay: Inhibition of monocyte accumulation (exudate volume) in a rat pleural exudate model of inflammation at 45 ug administered perorally; type: functional
[15] = molecular target: T1, Polyunsaturated fatty acid 5-lipoxygenase; assay: In vitro inhibition of RBL-1 5-lipoxygenase; Value ranges from 2.46-2.63; type: cell-based
[16] = molecular target: T2, Polyunsaturated fatty acid 5-lipoxygenase (Rattus norvegicus) (UniProt P12527); assay: In vitro inhibition of RBL-1 5-lipoxygenase at 20 uM; type: cell-based
T2 sequence (whole entry): T1 sequence (P12527 whole entry)

[17] = system: Rattus norvegicus; assay: Inhibition of monocyte accumulation (exudate volume) in a rat pleural exudate model of inflammation at 24 ug/kg administered perorally; type: functional; settings: po
[18] = system: Rattus norvegicus; assay: Inhibition of monocyte accumulation (exudate volume) in a rat pleural exudate model of inflammation at 3 ug/kg administered perorally; type: functional; settings: po
[19] = system: Rattus norvegicus; assay: Inhibition of monocyte accumulation (exudate volume) in a rat pleural exudate model of inflammation at 6 ug/kg administered perorally; type: functional; settings: po
[20] = molecular target: T1, Polyunsaturated fatty acid 5-lipoxygenase; assay: In vitro inhibition of RBL-1 5-lipoxygenase; Value ranges from […]; type: cell-based
[21] = system: Rattus norvegicus; assay: as §1; type: functional
[22] = molecular target: T1, Polyunsaturated fatty acid 5-lipoxygenase; assay: In vitro inhibition of RBL-1 5-lipoxygenase; Value ranges from 1.7-2.6; type: cell-based
[23] = molecular target: T1, Polyunsaturated fatty acid 5-lipoxygenase; assay: In vitro inhibition of RBL-1 5-lipoxygenase; Value ranges from 1.0-2.4; type: cell-based
[24] = molecular target: T1, Polyunsaturated fatty acid 5-lipoxygenase; assay: In vitro inhibition of RBL-1 5-lipoxygenase; Value ranges from 1.1-1.6; type: cell-based
[25] = molecular target: T1, Polyunsaturated fatty acid 5-lipoxygenase; assay: In vitro inhibition of RBL-1 5-lipoxygenase; Value ranges from 4.9-11.6; type: cell-based
[26] = molecular target: T1, Polyunsaturated fatty acid 5-lipoxygenase; assay: In vitro inhibition of RBL-1 5-lipoxygenase; Value ranges from 3.8-7.1; type: cell-based
[27] = molecular target: T1, Polyunsaturated fatty acid 5-lipoxygenase; assay: In vitro inhibition of RBL-1 5-lipoxygenase; Value ranges from 1.8-5.7; type: cell-based
[28] = molecular target: T1, Polyunsaturated fatty acid 5-lipoxygenase; assay: In vitro inhibition of RBL-1 5-lipoxygenase; Value ranges from 0.4-2.2; type: cell-based
[29] = molecular target: T1, Polyunsaturated fatty acid 5-lipoxygenase; assay: In vitro inhibition of RBL-1 5-lipoxygenase; Value ranges from 1.3-2.8; type: cell-based

Which results are given for `CC1=C(C)C(=O)C(CCCCC#CCCCC#CCO)=C(C)C1=O` [DOCEBENONE]?
IC50 [1]: 2 µM; Inhibition [2]: 77%

`COc1ccccc1Cc1nc2c(C)ccc(O)c2[nH]1.Cl` was tested. Which IC50 [3] did it give?
The IC50 was 3.4 µM.

And the Inhibition [2]?
Its Inhibition is 64%.

For `Cc1ccc(O)c2[nH]c(Cc3ccc(Cl)cc3)nc12`, which IC50 [4] is on record?
Its IC50 is 1000 nM.

For `Cc1ccc(O)c2[nH]c(-c3ccccc3)nc12`, which IC50 [5] is on record?
Its IC50 is 1200 nM.

`Cc1ccc(O)c2[nH]c(-c3ccc(N(C)C)cc3)nc12` was tested. Which IC50 [6] did it give?
The IC50 was 1300 nM.

Which IC50 [7] does the source give for `Cc1ccc(O)c2nc(Cc3cccnc3)[nH]c12` here?
The IC50 was 5 µM.

Which IC50 [8] does the source give for `COc1ccc(-c2nc3c(C)ccc(O)c3[nH]2)cc1` here?
Its IC50 is 2200 nM.

How did the IC50 [9] turn out when `Cc1ccc(O)c2[nH]c(Cc3cccc4ccccc34)nc12` was run?
Its IC50 is 2300 nM.

With `COc1cc(Cc2nc3c(C)ccc(O)c3[nH]2)cc(OC)c1OC.Cl` as the compound, how does the IC50 [10] read?
Its IC50 is 9.7 µM.

What about the Inhibition [2] of the same compound?
The Inhibition was 59%.

Which IC50 [11] does the source give for `COc1ccc(Cc2nc3c(C)cc(C(C)(C)C)c(O)c3[nH]2)cc1` here?
Its IC50 is 2200 nM.

Which IC50 [12] does the source give for `Cc1ccc(O)c2[nH]c(Cc3cccs3)nc12` here?
The IC50 was 2100 nM.

With `C[C@@H]1C[C@H]2[C@@H]3CCC4=CC(=O)C=C[C@]4(C)[C@@]3(F)[C@@H](O)C[C@]2(C)[C@@]1(O)C(=O)CO` [DEXAMETHASONE] as the compound, how does the Inhibition [13] read?
Its Inhibition is 71%.

And the Inhibition [14]?
The Inhibition was 80%.

`Cc1ccc(Cc2nc3c(O)ccc(C)c3[nH]2)cc1` was tested. Which IC50 [15] did it give?
The IC50 was 2540 nM.

For `Cc1ccc(O)c2[nH]c(Cc3ccc4ccccc4c3)nc12`, which inhibition [16] is on record?
Its inhibition is greater than 90%.

For `Cc1cc(C(C)(C)C)c(O)c2[nH]c(C(F)(F)F)nc12`, which inhibition in vivo at 0.024 mg/kg [17] is on record?
Its inhibition in vivo at 0.024 mg/kg is 48%.

And the inhibition in vivo at 0.003 mg/kg [18]?
The inhibition in vivo at 0.003 mg/kg was 52%.

What about the inhibition in vivo at 0.006 mg/kg [19] of the same compound?
Its inhibition in vivo at 0.006 mg/kg is 49%.

How did the IC50 [20] turn out when `CCOc1ccc(Cc2nc3c(C)ccc(O)c3[nH]2)cc1` was run?
Its IC50 is 3 µM.

What does the source list for `COc1ccc(Cc2nc3c(C)ccc(O)c3[nH]2)cc1.Cl`?
Inhibition [21]: 58%; IC50 [22]: 2100 nM

Which IC50 [23] does the source give for `COc1cccc(Cc2nc3c(C)ccc(O)c3[nH]2)c1` here?
The IC50 was 1700 nM.

With `Cc1ccc(O)c2[nH]c(-c3cccc(C(F)(F)F)c3)nc12` as the compound, how does the inhibition [16] read?
Its inhibition is greater than 90%.

`CCCc1nc2c(C)ccc(O)c2[nH]1` was tested. Which IC50 [1] did it give?
The IC50 was roughly 10 µM.

How did the Inhibition [2] turn out when `CC(Cc1ccc(O)c(O)c1)C(C)Cc1ccc(O)c(O)c1` (stereo not given) [NORDIHYDROGUAIARETIC ACID] was run?
Its Inhibition is 64%.

For `NC1=NN(c2cccc(C(F)(F)F)c2)CC1` [BW-755C], which Inhibition [2] is on record?
Its Inhibition is 25%.

How did the IC50 [24] turn out when `Cc1cc(C(C)(C)C)c(O)c2[nH]c(Cc3ccccc3)nc12` was run?
Its IC50 is 1300 nM.

Which results are given for `Cc1ccc(O)c2[nH]c(Cc3ccc(O)cc3)nc12.Cl`?
IC50 [25]: 6.9 µM; Inhibition [2]: 58%

Which IC50 [1] does the source give for `COc1ccc(Cc2nc3c(O)cccc3[nH]2)cc1` here?
Its IC50 is 20 µM.

With `COc1ccc(Cc2nc3c(C)ccc(O)c3[nH]2)cc1OC.Cl` as the compound, how does the IC50 [26] read?
Its IC50 is 5.2 µM.

And the Inhibition [2]?
Its Inhibition is 55%.

How did the IC50 [27] turn out when `Cc1ccc(O)c2[nH]c(-c3ccco3)nc12` was run?
The IC50 was 3.3 µM.

Which IC50 [1] does the source give for `Oc1cccc2[nH]c(Cc3ccccc3)nc12` here?
The IC50 was 20 µM.

How did the IC50 [28] turn out when `Cc1ccc(O)c2nc(Cc3ccccc3)[nH]c12` was run?
Its IC50 is 1200 nM.

How did the Inhibition [2] turn out when `O=C1CCN(c2ccccc2)N1` [PHENIDONE] was run?
Its Inhibition is 70%.

`Cc1ccc(O)c2[nH]c(CCc3ccccc3)nc12` was tested. Which IC50 [29] did it give?
The IC50 was 2100 nM.
